What was measured:
E. coli [1] = test: Molecular phenotypic antimicrobial susceptibility test, specimen with two detected pathogens incubated together without isolation; assay type: cell-based, Escherichia coli; conditions: E. coli in specimen with two detected pathogens (E. coli and M. morganii) incubated together; for Ct of Sensitive Breakpoint: Ct of controls (average) 15.93; for Molecular Antimicrobial Susceptibility Result: at sensitive breakpoint
Experimental: (§1) Detection of Molecular Phenotypic Antimicrobial Susceptibility. Disclosed herein are the methods for the detection of phenotypic antimicrobial susceptibility via molecular methods. The present invention describes how a specimen 100 with a known microbial load is incubated and then exposed to a panel of antimicrobial agents to determine sensitivity (prevention of growth) or resistance (allowance of growth) to the specific antimicrobial agents tested utilizing molecular methods.
(§2) Sample Collection. Specimens 100 are collected from patients using sterile collection processes that are employed in routine clinical care. Specimens are transported to the testing facility in boric acid preservative. Specimens 100 are subsequently divided into a first sample 104 and a second sample 108.
(§3) Preparation of the Specimens for Testing. The specimens 100 are put through a pathogen identification process using PCR technology (e.g., using the first sample 104). The process for pathogen isolation includes steps of harvesting the pathogen (e.g., via centrifugation), isolating pathogen DNA via a DNA isolation and/or purification kit, and performing PCR on the pathogen DNA via PCR components (e.g., primers, enzymes, buffers) as would be known to the skilled artisan. Simultaneously, an additional aliquot of the same specimen (e.g., the second sample 108) is placed with liquid culture media and incubated for 4-6 hours. This aliquot is used for antimicrobial susceptibility testing if indicated based on the pathogen detection results. After pathogen identification is completed and if more than 10,000 cells/mL of bacteria (e.g., eligible bacteria) are detected in the source specimen, the second sample 108 then enters the antimicrobial susceptibility phase of testing. Specimens 100 with lower pathogen loads could also be utilized in the antibiotic susceptibility phase of testing with or without a longer incubation period.
(§4) Preparation of Antimicrobial Susceptibility Testing Plates. Antimicrobial solutions are prepared at known concentrations. The specific antimicrobials and their concentrations are selected based on the pathogen of interest and the described antimicrobial resistance breakpoints for that specimen pathogen and antimicrobial combination. These antimicrobials have been selected based on those commonly utilized by healthcare providers in routine clinical care for the specific type of suspected infection. The number and types of antimicrobials utilized can be customized based on the infection source, pathogen detected, patient-specific factors such as allergies or other health conditions (e.g., chronic kidney disease or concurrent medication use), or healthcare provider preferences such as antimicrobial availability or cost.
(§5) The antimicrobial solutions are prepared in liquid culture media (such as Muller Hinton Broth) to achieve the desired antimicrobial concentration and are then stored at −80° C. until use. For a given specimen, each antimicrobial is tested at a single or multiple antimicrobial concentration(s) which is its established breakpoints for sensitivity. The antimicrobial solutions are prepared and plated out for each specific pathogen. This allows ease of use on the day of testing after defrosting the plate 112. Table 1, which illustrates the results of molecular phenotypic antimicrobial susceptibility testing when more than one organism is present in the source specimen, provides an example of an antimicrobial plate 112 prepared for this purpose. Of note, control wells containing only culture media are present on all plates 112. This allows for evaluation of pathogen load when no antimicrobial is present.
(§6) Specimen Exposure to Antimicrobial Agents. The 1 mL aliquot of the specimen 100 previously mixed with culture media and incubated is obtained. Using optical density measurements as a guide, the specimen 100 is diluted to 0.5 McFarland. […]

E. coli [2] = test: Molecular phenotypic antimicrobial susceptibility test with direct PCR (no extraction DNA purification step); assay type: cell-based, Escherichia coli
Experimental: as §1, §2, §3, §4, §5, §6

[3] = test system: pathogens of clinical samples; test: Molecular phenotypic antimicrobial susceptibility test of clinical samples, direct PCR without a separate DNA purification step (Table 6); assay type: cell-based
Experimental: as §1
(§7) Sample Collection. Specimens 100 are collected from patients using sterile collection processes that are employed in routine clinical care. Specimens are transported to the testing facility in boric acid preservative.
(§8) Preparation of the Specimens for Testing. […] The process for pathogen isolation includes steps of harvesting the pathogen (e.g., via centrifugation), isolating pathogen DNA via a DNA isolation and/or purification kit, and performing PCR on the pathogen DNA via PCR components (e.g., primers, enzymes, buffers) as would be known to the skilled artisan. […] This aliquot is used for antimicrobial susceptibility testing if indicated based on the pathogen detection results. […] Specimens 100 with lower pathogen loads could also be utilized in the antibiotic susceptibility phase of testing with or without a longer incubation period.
as §4
(§9) The antimicrobial solutions are prepared in liquid culture media (such as Muller Hinton Broth) to achieve the desired antimicrobial concentration and are then stored at −80° C. until use. For a given specimen, each antimicrobial is tested at a single or multiple antimicrobial concentration(s) which is its established breakpoints for sensitivity. The antimicrobial solutions are prepared and plated out for each specific pathogen. […] This allows for evaluation of pathogen load when no antimicrobial is present.
(§10) Specimen Exposure to Antimicrobial Agents. The 1 mL aliquot of the specimen 100 previously mixed with culture media and incubated is obtained. Using optical density measurements as a guide, the specimen 100 is diluted to 0.5 McFarland.
(§11) Antimicrobial exposure plates are typically placed into an incubator for 12-16 hours.
(§12) Nucleic Acid Amplification of Antimicrobial Agent Exposed Pathogens. The antimicrobial exposure plate is removed after the period of incubation. The specimen then undergoes a purification or lysis step. For example, the specimen may undergo a purification step (e.g., magnetic bead-based or other separation protocol to isolate genetic material). In another example, the specimen may undergo a cell lysis step. For example, buffer (e.g., lysis buffer) may be added and incubated in the thermal cycler for preparation for direct PCR. Next, the specimen may undergo a polymerase chain reaction (PCR) testing protocol, whereby a semi-quantitative PCR method is utilized. This may be completed either with or without a specific extraction protocol step. The pathogens can be individually targeted and detected, or a universal genetic sequence can be utilized to detect the antimicrobial susceptibility of the specimen as a whole.

Escherichia coli = test: Molecular phenotypic antimicrobial susceptibility test (extraction or DNA purification prior to PCR); assay type: cell-based
Experimental: as §1, §7, §8, §4, §9, §10, §11, §12

`C[C@@H]1O[C@@H]1P(=O)(O)O` [Fosfomycin] was tested, and the “Ct of Sensitive Breakpoint” value (E. coli [1]) was 29.24, the “Molecular Antimicrobial Susceptibility Result” value (E. coli [1]) was “Sensitive (Antimicrobial wells with pathogen load detected below the control wells (typically >2 cycle thresholds later) may be reported as Sensitive)” and the “Molecular Antimicrobial Susceptibility Result” value (E. coli [2]; E. coli #1 - WDCM 00090 - 6.2×E3, specimen with <10,000 cells/mL, direct PCR after 16 hours of incubation) was “Sensitive (Antimicrobial wells with pathogen load detected below the control wells (typically >2 cycle thresholds later) may be reported as Sensitive)”. The “Ct at Sensitive Breakpoint” value (E. coli [2]; E. coli #1 - WDCM 00090 - 6.2×E3, specimen with <10,000 cells/mL, direct PCR after 16 hours of incubation, Ct at control 13.787) was 27.59, the “Molecular Antimicrobial Susceptibility Result” value (E. coli [2]; E. coli #2 - WDCM 00090 - 6.2×E3, specimen with <10,000 cells/mL, direct PCR after 16 hours of incubation) was “Sensitive (Antimicrobial wells with pathogen load detected below the control wells (typically >2 cycle thresholds later) may be reported as Sensitive)” and the “Ct at Sensitive Breakpoint” value (E. coli [2]; E. coli #2 - WDCM 00090 - 6.2×E3, specimen with <10,000 cells/mL, direct PCR after 16 hours of incubation, Ct at control 13.46) was 28.41. For the same compound, the “Molecular Antibiotic Susceptibility Result” value ([3]; E. coli, clinical sample of r10-r24) was “Sensitive (Antimicrobial wells with pathogen load detected below the control wells (typically >2 cycle thresholds later) may be reported as Sensitive)”, the Ct ([3]; E. coli, clinical sample of r10-r24, Ct control avg 12.97) was 25.481 and the “Molecular Antibiotic Susceptibility Result” value ([3]; E. coli, clinical sample of r158-r172) was “Sensitive (Antimicrobial wells with pathogen load detected below the control wells (typically >2 cycle thresholds later) may be reported as Sensitive)”. The Ct ([3]; E. coli, clinical sample of r158-r172, Ct control avg 12.894) was 27.932, the “Molecular Antibiotic Susceptibility Result” value ([3]; E. faecalis, clinical sample of r93-r99) was “Sensitive (Antimicrobial wells with pathogen load detected below the control wells (typically >2 cycle thresholds later) may be reported as Sensitive)” and the Ct ([3]; E. faecalis, clinical sample of r93-r99, Ct control avg 22.011) was 30.578. The “Molecular Antibiotic Susceptibility Result” value ([3]; E. faecalis, clinical sample of r100-r106) was “sensitive”, the Ct ([3]; E. faecalis, clinical sample of r100-r106, Ct control avg 21.027) was 33.882 and the “Molecular Antibiotic Susceptibility Result” value ([3]; E. faecalis, clinical sample of r107-r113) was “Resistant”. For the same compound, the Ct ([3]; E. faecalis, clinical sample of r107-r113, Ct control avg 20.529) was 19.527, the “Molecular Antibiotic Susceptibility Result” value ([3]; E. faecalis, clinical sample of r114-r120) was “Sensitive (Antimicrobial wells with pathogen load detected below the control wells (typically >2 cycle thresholds later) may be reported as Sensitive)” and the Ct ([3]; E. faecalis, clinical sample of r114-r120, Ct control avg 20.909) was 27.178. For the same compound, the “Molecular Antibiotic Susceptibility Result” value ([3]; E. faecalis, clinical sample of r151-r157) was “Sensitive (Antimicrobial wells with pathogen load detected below the control wells (typically >2 cycle thresholds later) may be reported as Sensitive)”, the Ct ([3]; E. faecalis, clinical sample of r151-r157, Ct control avg 18.551) was 32.048 and the “Molecular Antibiotic Susceptibility Result” value ([3]; K. aerogenes, clinical sample of r136-r150) was “Sensitive (Antimicrobial wells with pathogen load detected below the control wells (typically >2 cycle thresholds later) may be reported as Sensitive)”. For the same compound, the Ct ([3]; K. aerogenes, clinical sample of r136-r150, Ct control avg 13.854) was 19.581, the “Molecular Antibiotic Susceptibility Result” value ([3]; K. pneumoniae, clinical sample of r121-r135) was “Resistant” and the Ct ([3]; K. pneumoniae, clinical sample of r121-r135, Ct control avg […]) was 14.895. For the same compound, the “Molecular Antibiotic Susceptibility Result” value ([3]; M. morganii, clinical sample of r55-r69) was “Sensitive (Antimicrobial wells with pathogen load detected below the control wells (typically >2 cycle thresholds later) may be reported as Sensitive)”, the Ct ([3]; M. morganii, clinical sample of r55-r69, Ct control avg 12.09) was 18.368 and the “Molecular Antibiotic Susceptibility Result” value ([3]; M. morganii, clinical sample of r70-r84) was “Sensitive (Antimicrobial wells with pathogen load detected below the control wells (typically >2 cycle thresholds later) may be reported as Sensitive)”. For the same compound, the Ct ([3]; M. morganii, clinical sample of r70-r84, Ct control avg 11.677) was 28.123, the “Molecular Antibiotic Susceptibility Result” value ([3]; P. mirabilis, clinical sample of r25-r39) was “Sensitive (Antimicrobial wells with pathogen load detected below the control wells (typically >2 cycle thresholds later) may be reported as Sensitive)” and the Ct ([3]; P. mirabilis, clinical sample of r25-r39, Ct control avg 11.801) was 26.9. For the same compound, the “Molecular Antibiotic Susceptibility Result” value ([3]; P. mirabilis, clinical sample of r40-r54) was “Sensitive (Antimicrobial wells with pathogen load detected below the control wells (typically >2 cycle thresholds later) may be reported as Sensitive)” and the Ct ([3]; P. mirabilis, clinical sample of r40-r54, Ct control avg 10.06) was 27.935.
In the case of `O=C(O)c1cn(C2CC2)c2cc(N3CCNCC3)c(F)cc2c1=O` [Ciprofloxacin], the “Ct at Sensitive Breakpoint” value (Escherichia coli; E. coli isolate 1, Ct at control (average) 21.238) was 20.351, the “Molecular Antimicrobial Susceptibility Result” value (Escherichia coli; E. coli isolate 1, at sensitive breakpoint) was “Resistant” and the “Ct at Sensitive Breakpoint” value (Escherichia coli; E. coli isolate 2, Ct at control (average) 21.270) was 19.988. The “Molecular Antimicrobial Susceptibility Result” value (Escherichia coli; E. coli isolate 2, at sensitive breakpoint) was “Resistant”, the “Ct at Sensitive Breakpoint” value (Escherichia coli; E. coli isolate 3, Ct at control (average) 22.0995) was 21.394 and the “Molecular Antimicrobial Susceptibility Result” value (Escherichia coli; E. coli isolate 3, at sensitive breakpoint) was “Resistant”. For the same compound, the “Ct at Sensitive Breakpoint” value (Escherichia coli; E. coli isolate 4, Ct at control (average) 17.5733) was 17.68, the “Molecular Antimicrobial Susceptibility Result” value (Escherichia coli; E. coli isolate 4, at sensitive breakpoint) was “Resistant” and the “Ct at Sensitive Breakpoint” value (Escherichia coli; E. coli isolate 5, Ct at control (average) 21.0933) was 33.02. For the same compound, the “Molecular Antimicrobial Susceptibility Result” value (Escherichia coli; E. coli isolate 5, at sensitive breakpoint) was “Sensitive (Antimicrobial wells with pathogen load detected below the control wells (typically >2 cycle thresholds later) may be reported as Sensitive)”, the “Ct of Sensitive Breakpoint” value (E. coli [1]) was 31.81 and the “Molecular Antimicrobial Susceptibility Result” value (E. coli [1]) was “Sensitive (Antimicrobial wells with pathogen load detected below the control wells (typically >2 cycle thresholds later) may be reported as Sensitive)”. For the same compound, the “Ct at Sensitive Breakpoint” value (E. coli [2]; E. coli isolate JJ1887, direct PCR, Ct at control (average) 12.832) was 12.215 and the “Molecular Antimicrobial Susceptibility Result” value (E. coli [2]; E. coli isolate JJ1887, direct PCR, at sensitive breakpoint) was “Resistant”.

Reference: patent publication US20250290117A1, “MOLECULAR PHENOTYPIC ANTIMICROBIAL SUSCEPTIBILITY TESTING” (priority 2024, published 2025)
